Species on record: Rattus norvegicus
Assay: Open TG-GATES - Regimen: Daily Repeat
Format: toxicity, organism-based, Sprague-Dawley
Set-up: regimen Daily Repeat, gender Male, age 6 weeks
Conditions: in vivo, po, 0 mg/kg, route gavage, dose level Control; for APTT / Bas / Eos / Fbg / Ht / Lym / MCH / MCHC / MCV / Mono / Neu / PT / Plat / RBC / Ret / WBC: tissue Blood; for KIDNEY_L / KIDNEY_R / KIDNEY_TOTAL: tissue Kidney; for LIVER: tissue Liver; for ALP / ALT / AST / BUN / CRE / Ca / Cl / DBIL / GLC / IP / K / LDH / Na / PL / RALB / TBIL / TC / TG / TP / gamma-GTP: tissue Plasma

Cc1cccc(Nc2cc(Cl)nc(SCC(=O)O)n2)c1C [PIRINIXIC ACID]
TERMINAL_BW (72 h, time 3 day): 233.5 g
APTT (72 h, time 3 day): 16.4 s
Bas (72 h, time 3 day): 0%
Eos (72 h, time 3 day): 1.2%
Fbg (72 h, time 3 day): 285 mg/dL
Ht (72 h, time 3 day): 39.4%
Lym (72 h, time 3 day): 75.2%
MCH (72 h, time 3 day): 22.2 pg
MCHC (72 h, time 3 day): 34.4%
MCV (72 h, time 3 day): 64.7 fL
Mono (72 h, time 3 day): 2.8%
Neu (72 h, time 3 day): 20.2%
PT (72 h, time 3 day): 12.3 s
Plat (72 h, time 3 day): 109.1 x10_4/uL
RBC (72 h, time 3 day): 609.4 x10_4/ul
Ret (72 h, time 3 day): 7%
WBC (72 h, time 3 day): 85.4 x10_2/uL
KIDNEY_L (72 h, time 3 day): 1 g
KIDNEY_R (72 h, time 3 day): 1 g
KIDNEY_TOTAL (72 h, time 3 day): 1.9 g
LIVER (72 h, time 3 day): 10.9 g
ALP (72 h, time 3 day): 1563.4 IU/L
ALT (72 h, time 3 day): 50 IU/L
AST (72 h, time 3 day): 77 IU/L
BUN (72 h, time 3 day): 15.8 mg/dL
CRE (72 h, time 3 day): 0.2 mg/dL
Ca (72 h, time 3 day): 10.8 mg/dL
Cl (72 h, time 3 day): 105.4 meq/L
DBIL (72 h, time 3 day): 0.024 mg/dL
GLC (72 h, time 3 day): 201.2 mg/dL
IP (72 h, time 3 day): 8.2 mg/dL
K (72 h, time 3 day): 3.8 meq/L
LDH (72 h, time 3 day): 80.4 IU/L
Na (72 h, time 3 day): 143 meq/L
PL (72 h, time 3 day): 155 mg/dL
RALB (72 h, time 3 day): 2.6 g/dL
TBIL (72 h, time 3 day): 0.032 mg/dL
TC (72 h, time 3 day): 79.6 mg/dL
TG (72 h, time 3 day): 92.8 mg/dL
TP (72 h, time 3 day): 5.5 g/dL
gamma-GTP (72 h, time 3 day): 1.6 IU/L
TERMINAL_BW ([…], time 7 day): 265.8 g
TERMINAL_BW ([…], time 14 day): 320.3 g
TERMINAL_BW ([…], time 28 day): 387.5 g
APTT ([…], time 7 day): 16.6 s
Bas ([…], time 7 day): 0%
Eos ([…], time 7 day): 0.4%
Fbg ([…], time 7 day): 312.6 mg/dL
Ht ([…], time 7 day): 40.4%
Lym ([…], time 7 day): 83.4%
MCH ([…], time 7 day): 21.7 pg
MCHC ([…], time 7 day): 34.7%
MCV ([…], time 7 day): 62.3 fL
Mono ([…], time 7 day): 2.2%
Neu ([…], time 7 day): 13.8%
PT ([…], time 7 day): 12.3 s
Plat ([…], time 7 day): 127.6 x10_4/uL
RBC ([…], time 7 day): 648.6 x10_4/ul
Ret ([…], time 7 day): 5.5%
WBC ([…], time 7 day): 89.6 x10_2/uL
APTT ([…], time 14 day): 15.5 s
Bas ([…], time 14 day): 0%
Eos ([…], time 14 day): 0.8%
Fbg ([…], time 14 day): 324.2 mg/dL
Ht ([…], time 14 day): 41.1%
Lym ([…], time 14 day): 77.6%
MCH ([…], time 14 day): 20.2 pg
MCHC ([…], time 14 day): 35.2%
MCV ([…], time 14 day): 57.3 fL
Mono ([…], time 14 day): 2.4%
Neu ([…], time 14 day): 18.6%
PT ([…], time 14 day): 12.4 s
Plat ([…], time 14 day): 119.6 x10_4/uL
RBC ([…], time 14 day): 716.8 x10_4/ul
Ret ([…], time 14 day): 4.1%
WBC ([…], time 14 day): 101.8 x10_2/uL
APTT ([…], time 28 day): 17.7 s
Bas ([…], time 28 day): 0%
Eos ([…], time 28 day): 1.2%
Fbg ([…], time 28 day): 284.6 mg/dL
Ht ([…], time 28 day): 44.2%
Lym ([…], time 28 day): 75%
MCH ([…], time 28 day): 19.8 pg
MCHC ([…], time 28 day): 35.6%
MCV ([…], time 28 day): 55.5 fL
Mono ([…], time 28 day): 2.4%
Neu ([…], time 28 day): 20.6%
PT ([…], time 28 day): 12.3 s
Plat ([…], time 28 day): 100.6 x10_4/uL
RBC ([…], time 28 day): 796.8 x10_4/ul
Ret ([…], time 28 day): 2.3%
WBC ([…], time 28 day): 82.2 x10_2/uL
KIDNEY_L ([…], time 7 day): 1.1 g
KIDNEY_R ([…], time 7 day): 1 g
KIDNEY_TOTAL ([…], time 7 day): 2.1 g
KIDNEY_L ([…], time 14 day): 1.2 g
KIDNEY_R ([…], time 14 day): 1.2 g
KIDNEY_TOTAL ([…], time 14 day): 2.5 g
KIDNEY_L ([…], time 28 day): 1.4 g
KIDNEY_R ([…], time 28 day): 1.3 g
KIDNEY_TOTAL ([…], time 28 day): 2.7 g
LIVER ([…], time 7 day): 12.4 g
LIVER ([…], time 14 day): 14.7 g
LIVER ([…], time 28 day): 15.5 g
ALP ([…], time 7 day): 1820.8 IU/L
ALT ([…], time 7 day): 48.8 IU/L
AST ([…], time 7 day): 67.6 IU/L
BUN ([…], time 7 day): 19.4 mg/dL
CRE ([…], time 7 day): 0.2 mg/dL
Ca ([…], time 7 day): 11 mg/dL
Cl ([…], time 7 day): 105 meq/L
DBIL ([…], time 7 day): 0.02 mg/dL
GLC ([…], time 7 day): 205.6 mg/dL
IP ([…], time 7 day): 7.1 mg/dL
K ([…], time 7 day): 4 meq/L
LDH ([…], time 7 day): 80 IU/L
Na ([…], time 7 day): 142.4 meq/L
PL ([…], time 7 day): 164.2 mg/dL
RALB ([…], time 7 day): 2.7 g/dL
TBIL ([…], time 7 day): 0.036 mg/dL
TC ([…], time 7 day): 80.8 mg/dL
TG ([…], time 7 day): 128.4 mg/dL
TP ([…], time 7 day): 5.9 g/dL
gamma-GTP ([…], time 7 day): 1 IU/L
ALP ([…], time 14 day): 1141.6 IU/L
ALT ([…], time 14 day): 41.2 IU/L
AST ([…], time 14 day): 65.8 IU/L
BUN ([…], time 14 day): 16 mg/dL
CRE ([…], time 14 day): 0.2 mg/dL
Ca ([…], time 14 day): 10.6 mg/dL
Cl ([…], time 14 day): 105.2 meq/L
DBIL ([…], time 14 day): 0.016 mg/dL
GLC ([…], time 14 day): 202.4 mg/dL
IP ([…], time 14 day): 7.1 mg/dL
K ([…], time 14 day): 3.8 meq/L
LDH ([…], time 14 day): 78.8 IU/L
Na ([…], time 14 day): 143.4 meq/L
PL ([…], time 14 day): 139.6 mg/dL
RALB ([…], time 14 day): 2.8 g/dL
TBIL ([…], time 14 day): 0.03 mg/dL
TC ([…], time 14 day): 69 mg/dL
TG ([…], time 14 day): 117.4 mg/dL
TP ([…], time 14 day): 6 g/dL
gamma-GTP ([…], time 14 day): 1.2 IU/L
ALP ([…], time 28 day): 955.2 IU/L
ALT ([…], time 28 day): 36.2 IU/L
AST ([…], time 28 day): 59.4 IU/L
BUN ([…], time 28 day): 14 mg/dL
CRE ([…], time 28 day): 0.2 mg/dL
Ca ([…], time 28 day): 10.7 mg/dL
Cl ([…], time 28 day): 106.6 meq/L
DBIL ([…], time 28 day): 0.018 mg/dL
GLC ([…], time 28 day): 199 mg/dL
IP ([…], time 28 day): 6.5 mg/dL
K ([…], time 28 day): 3.5 meq/L
LDH ([…], time 28 day): 48.8 IU/L
Na ([…], time 28 day): 144.2 meq/L
PL ([…], time 28 day): 139.6 mg/dL
RALB ([…], time 28 day): 2.8 g/dL
TBIL ([…], time 28 day): 0.064 mg/dL
TC ([…], time 28 day): 75.8 mg/dL
TG ([…], time 28 day): 90.4 mg/dL
TP ([…], time 28 day): 6.4 g/dL
